Like-named read-outs stand apart in the source and are kept apart here.
Legend:
[1] = Tigecycline plasma PK after IV bolus in dogs; assay type: in vivo, Beagle dogs; details: female, beagle, dog, plasma; for AUC(0-t) / Cmax: iv
Method: Adult beagle dogs weighing approximately 9 to 15 kg were used in the study. […] Room temperature was set to be maintained between approximately 20±5° C. Relative humidity was monitored but not controlled.
TEKLAD™ Certified Canine Diet was provided once daily in amounts (˜400 grams) appropriate for the size and age of the animals. Tap water was available ad libitum via automatic watering device or water bowls.
Doses are expressed in terms of free net tigecycline content. […] Oral dosing of enteric-coated capsules was accomplished by administering them to the back of the dog's mouth, followed by a chase of 5 mL water to ensure swallowing.
Water was provided ad libitum. […] Subsequently, each group of animals was dosed based on the protocol, i.e. either IV, or PO by capsule.
Minocycline (VWR international) was used as an internal standard. Sample processing/clean-up of plasma samples was carried out offline by protein precipitation with acidified acetonitrile using 0.5% trifluoroacetic acid (TFA).
The HPLC system consisted of Shimadzu SIL-HTc HPLC system equipped with dual Shimadzu LC-10ADvp isopumps, a Shimadzu CTO-10ASvp column temperature controller and a Shimadzu SPD-10Avp variable wavelength detector. […] Mobile phase A consisted of 23 mM phosphate buffer pH 2.5 with 4 mM 1-octanesulfonic acid, while mobile phase B consisting of 90% acetonitrile, 10% water, with 2 mM 1-octanesulfonic acid. […] The total runtime was 18 minutes per sample. The mobile phase flow rate was 1.2 mL/min. Detection was performed using the SPD-10Avp variable wavelength detector set at 350 nm, with a sensitivity of 0.001 aufs.
The samples were then centrifuged under refrigeration at 13 k rpm for 5 minutes. The supernatant was taken and the liquid removed to dryness under nitrogen in a turbovap. The dried extract was reconstituted in 60 μL of mobile phase A and the suspension was further centrifuged at 5 k rpm for 5 minutes to pellet any insoluble matter. The resulting supernatant was then injected onto the LC.
The unknown concentration in dog plasma samples was determined by interpolation of the peak area ratios of analyte:internal standard versus the ratio of their nominal concentrations into the regression line obtained from calibration standards spiked in pooled dog plasma. No regression weighting was used for the calculations. […] The calibration curve covered the range of 0.05 μg/mL to 5 μg/mL.
It should be noted however, that when the method was transferred to an older HPLC system (equipped with a Shimadzu SCT-10Avp system controller and SIL-10A autoinjector), the time program was further altered such that the gradient went to 38% mobile phase B to account to system design changes. All other parameters remained unchanged.
Tigecycline PK parameters for individual dogs were calculated using non-compartmental analysis with PK Functions for Microsoft Excel.

[2] = cited from earlier work
[3] = intravenous, 1 mg, Tigecycline Plasma Concentration, 1 mg IV in PBS (0.08 mg/kg), SC427, mean
[4] = intravenous, 5 mg, Tigecycline Plasma Concentration, 5 mg IV in PBS ([…]), SC431, individual dogs
[5] = intravenous, 5 mg, Tigecycline Plasma Concentration, 5 mg IV in PBS ([…]), SC431, mean

With `CN(C)c1cc(NC(=O)CNC(C)(C)C)c(O)c2c1C[C@H]1C[C@H]3[C@H](N(C)C)C(O)=C(C(N)=O)C(=O)[C@@]3(O)C(O)=C1C2=O` [Tigecycline] as the molecule, how does the concentration at 120 min [1, 3] read?
The concentration at 120 min was 11.1 ng/mL.

What about the concentration at 360 min [1, 3] of the same molecule?
The concentration at 360 min was 1.15 ng/mL.

What about the concentration at 5 min [1, 4] of the same molecule?
The concentration at 5 min was 336 ng/mL.

What about the concentration at 5 min [1, 5] of the same molecule?
The concentration at 5 min was 335 ng/mL.

What about the concentration at 10 min [1, 4] of the same molecule?
Its concentration at 10 min is 198 ng/mL.

And the concentration at 10 min [1, 5]?
Its concentration at 10 min is 163 ng/mL.

And the concentration at 15 min [1, 4]?
The concentration at 15 min was 122 ng/mL.

And the concentration at 15 min [1, 5]?
Its concentration at 15 min is 111 ng/mL.

What about the concentration at 20 min [1, 4] of the same molecule?
Its concentration at 20 min is 117 ng/mL.

What about the concentration at 20 min [1, 5] of the same molecule?
The concentration at 20 min was 94.4 ng/mL.

What about the concentration at 30 min ([1]; intravenous, 5 mg, Tigecycline Plasma Concentration, 30 min, 5 mg IV in PBS ([…]), SC431, mean) of the same molecule?
Its concentration at 30 min is 76.2 ng/mL.

What about the concentration at 40 min [1, 4] of the same molecule?
Its concentration at 40 min is 72 ng/mL.

What about the concentration at 40 min [1, 5] of the same molecule?
The concentration at 40 min was 60.5 ng/mL.

What about the concentration at 60 min ([1]; intravenous, 5 mg, Tigecycline Plasma Concentration, 60 min, 5 mg IV in PBS ([…]), SC431, mean) of the same molecule?
Its concentration at 60 min is 49.1 ng/mL.

What about the concentration at 90 min [1, 4] of the same molecule?
Its concentration at 90 min is 59.9 ng/mL.

What about the concentration at 90 min [1, 5] of the same molecule?
Its concentration at 90 min is 47.4 ng/mL.

What about the concentration at 120 min [1, 5] of the same molecule?
Its concentration at 120 min is 42.3 ng/mL.

And the concentration at 360 min [1, 5]?
Its concentration at 360 min is 16.5 ng/mL.

What about the AUC(0-t) ([1]; 0.08 mg/kg, 1 mg IV in PBS (0.08 mg/kg), SC427, individual dogs, read-out: AUC(0-t)) of the same molecule?
The AUC(0-t) was 56.2 ng·h/mL.

What about the Cmax ([1]; 0.08 mg/kg, 1 mg IV in PBS (0.08 mg/kg), SC427, individual dogs, read-out: Cmax) of the same molecule?
The Cmax was 86 ng/mL.

And the AUC(0-t) ([1]; 0.08 mg/kg, 1 mg IV in PBS (0.08 mg/kg), SC427, mean, read-out: AUC(0-t))?
Its AUC(0-t) is 72.4 ng·h/mL.

And the Cmax ([1]; 0.08 mg/kg, 1 mg IV in PBS (0.08 mg/kg), SC427, mean, read-out: Cmax)?
The Cmax was 79.1 ng/mL.

What about the AUC(0-t) ([1]; 0.08 mg/kg, IV bolus 1 mg (0.08 mg/kg), SC427, read-out: AUC(0-t), mean) of the same molecule?
Its AUC(0-t) is 72.4 ng·h/mL.

What about the Cmax ([1]; 0.08 mg/kg, IV bolus 1 mg (0.08 mg/kg), SC427, read-out: Cmax, mean) of the same molecule?
Its Cmax is 79.1 ng/mL.

What about the AUC(0-t) ([1]; 0.08 mg/kg, IV, Study 1 (SC427), 1 mg (0.08 mg/kg), mean (% CV), read-out: AUC(0-t)) of the same molecule?
The AUC(0-t) was 72.4 ng·h/mL.

And the Cmax ([1]; 0.08 mg/kg, IV, Study 1 (SC427), 1 mg (0.08 mg/kg), mean (% CV), read-out: Cmax)?
The Cmax was 79.1 ng/mL.

And the Cmax ([1]; […], 5 mg IV in PBS ([…]), SC431, individual dogs, read-out: Cmax)?
The Cmax was 336 ng/mL.

And the AUC(0-t) ([1]; […], 5 mg IV in PBS ([…]), SC431, mean, read-out: AUC(0-t))?
The AUC(0-t) was 411 ng·h/mL.

And the Cmax ([1]; […], 5 mg IV in PBS ([…]), SC431, mean, read-out: Cmax)?
The Cmax was 335 ng/mL.

And the AUC(0-t) ([1]; […], IV bolus 5 mg ([…]), SC431, read-out: AUC(0-t), mean)?
Its AUC(0-t) is 411 ng·h/mL.

And the Cmax ([1]; […], IV bolus 5 mg ([…]), SC431, read-out: Cmax, mean)?
The Cmax was 335 ng/mL.

What about the AUC(0-t) ([1]; […], IV, Study 2 (SC431), 5 mg ([…]), mean (% CV), read-out: AUC(0-t)) of the same molecule?
The AUC(0-t) was 411 ng·h/mL.

And the Cmax ([1]; […], IV, Study 2 (SC431), 5 mg ([…]), mean (% CV), read-out: Cmax)?
The Cmax was 335 ng/mL.

What about the Tmax ([1]; IV bolus 1 mg (0.08 mg/kg), SC427, read-out: Tmax, mean (converted)) of the same molecule?
Its Tmax is 5 min.

And the Tmax ([1]; IV bolus 5 mg (0.42 mg/kg), SC431, read-out: Tmax (converted))?
Its Tmax is 5 min.

And the aqueous solubility [2]?
Its aqueous solubility is “approximately 300 mg/mL”.

From US9526785B2, “Pharmaceuticals for oral delivery” (Enteris BioPharma, Inc., priority 2013, dated 2016)
